The EC50 is the midpoint of the concentration-response curve.

The assay deals with T1, LCAT (Homo sapiens, UniProt P04180).
T1 construct: The obtained fraction was dialyzed against phosphate-buffered saline (pH 7.4) and used as an enzyme source and an acceptor for LCAT; from tissue; host or cells: HDL3 fraction (1.125 < specific gravity < 1.210 g/mL) of plasma from a healthy person
T1 sequence (P04180 25-440): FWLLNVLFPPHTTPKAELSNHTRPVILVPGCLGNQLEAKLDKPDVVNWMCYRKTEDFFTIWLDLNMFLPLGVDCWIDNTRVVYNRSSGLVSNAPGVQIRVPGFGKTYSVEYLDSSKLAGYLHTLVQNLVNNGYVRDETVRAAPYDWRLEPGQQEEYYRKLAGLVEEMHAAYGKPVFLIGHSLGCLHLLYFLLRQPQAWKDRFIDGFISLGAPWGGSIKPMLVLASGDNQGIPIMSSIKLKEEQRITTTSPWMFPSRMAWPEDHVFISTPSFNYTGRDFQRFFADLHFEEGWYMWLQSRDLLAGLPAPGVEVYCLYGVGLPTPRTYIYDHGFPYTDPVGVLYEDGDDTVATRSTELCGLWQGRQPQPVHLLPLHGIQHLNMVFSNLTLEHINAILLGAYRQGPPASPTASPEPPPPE
Kind of assay: LCAT activity measurement (in vitro), [14C]cholesterol esterification with HDL3 fraction. The format is biochemical. The following applies: HDL3 fraction from plasma of a healthy person as enzyme source and acceptor; 37° C., approximately 16 hours; relative to sample without test drug; read-out: EC50 of LCAT activation. The method, then:
A fraction composed of HDL3 (1.125 <specific gravity <1.210 g/mL) was obtained from the plasma of a healthy person by density gradient centrifugation. The obtained fraction was dialyzed against phosphate-buffered saline (pH 7.4) and used as an enzyme source and an acceptor for LCAT. Each test drug was prepared by dissolution in dimethyl sulfoxide. [^14C]Cholesterol containing DTNB (Ellman's reagent, final concentration: 0.5 mM), mercaptoethanol (final concentration: 12.5 mM), and 0.6% bovine serum albumin was added to phosphate-buffered saline (pH 7.4) containing 1 mg/mL HDL3, and the test drug was further added thereto at varying concentrations to adjust the whole amount to 80 μL. This mixture was incubated at 37° C. for approximately 16 hours. Then, a mixed solution of hexane and isopropanol (mixing ratio=3:2) was added thereto to stop the reaction. After stirring, the hexane layer was collected, and this layer was evaporated to dryness. A chloroform solution (concentration: 10 mg/mL) was added thereto, and the mixture was spotted onto a thin-layer silica gel plate and developed using a mixed solution of hexane, diethyl ether, and ethyl acetate (mixing ratio=85:15:2). The radioactivity of a portion corresponding to cholesterol oleate was measured using an imaging analyzer BAS-2500 (manufactured by Fujifilm Corp.). A sample non-supplemented with the test drug was similarly treated and assayed. The EC50 value of LCAT activation was calculated according to the expression given below relative to LCAT activity in the sample non-supplemented with the test drug.
[formula] • wherein X represents the logarithm of the concentration of the test drug; • Y represents the responsiveness (LCAT activity) of the test drug; • Top represents the maximum value (maximum plateau); • Bottom represents the minimum value (minimum plateau); and • EC50 represents the 50% effective concentration.
Consider `O=C1Nc2[nH]nc(C3CCN(c4ccc(C(F)(F)F)cn4)CC3)c2[C@@H](C(F)(F)F)[C@@H]1O` (racemic) [Example 1, trans-5-Hydroxy-4-(trifluoromethyl)-3-{1-[5-(trifluoromethyl)pyridin-2-yl]piperidin-4-yl}-1,4,5,7-tetrahydro-6H-pyrazolo[3,4-b]pyridin-6-one], for which the EC50 was determined as 0.88 µM.
The value for `O=C1Nc2[nH]nc(C3CCN(c4ccc(C(F)(F)F)cn4)CC3)c2[C@@H](C(F)(F)F)[C@H]1O` (racemic) [Example 2, cis-5-Hydroxy-4-(trifluoromethyl)-3-{1-[5-(trifluoromethyl)pyridin-2-yl]piperidin-4-yl}-1,4,5,7-tetrahydro-6H-pyrazolo[3,4-b]pyridin-6-one] was 0.04 µM; that for `CC(C)Oc1ccc(N2CCC(c3n[nH]c4c3[C@@H](C(F)(F)F)[C@@H](O)C(=O)N4)CC2)nc1` (racemic) [Example 5, cis-5-Hydroxy-3-[1-(5-isopropoxypyridin-2-yl)piperidin-4-yl]-4-(trifluoromethyl)-1,4,5,7-tetrahydro-6H-pyrazolo[3,4-b]pyridin-6-one] was 0.16 µM; that for `O=C1Nc2[nH]nc(C3CCN(c4ccc(C(F)(F)F)nn4)CC3)c2[C@@H](C(F)(F)F)[C@@H]1O` (racemic) [Example 6, trans-5-Hydroxy-4-(trifluoromethyl)-3-{1-[6-(trifluoromethyl)pyridazin-3-yl]piperidin-4-yl}-1,4,5,7-tetrahydro-6H-pyrazolo[3,4-b]pyridin-6-one] was 2.22 µM.
To `O=C1Nc2[nH]nc(C3CCN(c4ccc(C(F)(F)F)nn4)CC3)c2[C@@H](C(F)(F)F)[C@H]1O` (racemic) [Example 7, cis-5-Hydroxy-4-(trifluoromethyl)-3-{1-[6-(trifluoromethyl)pyridazin-3-yl]piperidin-4-yl}-1,4,5,7-tetrahydro-6H-pyrazolo[3,4-b]pyridin-6-one] belongs 0.11 µM; to `CC(C)c1nc(N2CCC(c3n[nH]c4c3[C@@H](C(F)(F)F)[C@H](O)C(=O)N4)CC2)cc(C(F)(F)F)n1` (racemic) [Example 8, trans-5-Hydroxy-3-{1-[2-isopropyl-6-(trifluoromethyl)pyrimidin-4-yl]piperidin-4-yl}-4-(trifluoromethyl)-1,4,5,7-tetrahydro-6H-pyrazolo[3,4-b]pyridin-6-one], 0.63 µM.
The value for `CC(C)c1nc(N2CCC(c3n[nH]c4c3[C@@H](C(F)(F)F)[C@@H](O)C(=O)N4)CC2)cc(C(F)(F)F)n1` (racemic) [Example 9, cis-5-Hydroxy-3-{1-[2-isopropyl-6-(trifluoromethyl)pyrimidin-4-yl]piperidin-4-yl}-4-(trifluoromethyl)-1,4,5,7-tetrahydro-6H-pyrazolo[3,4-b]pyridin-6-one] was 0.027 µM.
For the molecule `O=C1Nc2[nH]nc(C3CCN(c4cnc(C(F)(F)F)cn4)CC3)c2[C@@H](C(F)(F)F)[C@@H]1O` (racemic) [Example 10, trans-5-Hydroxy-4-(trifluoromethyl)-3-{1-[5-(trifluoromethyl)pyrazin-2-yl]piperidin-4-yl}-1,4,5,7-tetrahydro-6H-pyrazolo[3,4-b]pyridin-6-one], the EC50 was found to be 0.34 µM.
`O=C1Nc2[nH]nc(C3CCN(c4cnc(C(F)(F)F)cn4)CC3)c2[C@@H](C(F)(F)F)[C@H]1O` (racemic) [Example 11, cis-5-Hydroxy-4-(trifluoromethyl)-3-{l-[5-(trifluoromethyl)pyrazin-2-yl]piperidin-4-yl}-1,4,5,7-tetrahydro-6H-pyrazolo[3,4-b]pyridin-6-one]: the EC50 stood at 0.029 µM.
To `O=C1Nc2[nH]nc(C3CCN(c4cnc(C(F)(F)F)nc4)CC3)c2[C@@H](C(F)(F)F)[C@H]1O` (racemic) [Example 12, cis-5-Hydroxy-4-(trifluoromethyl)-3-{1-[2-(trifluoromethyl)pyrimidin-5-yl]piperidin-4-yl}-1,4,5,7-tetrahydro-6H-pyrazolo[3,4-b]pyridin-6-one] belongs 0.035 µM; to `N#Cc1cnc(N2CCC(c3n[nH]c4c3[C@@H](C(F)(F)F)[C@@H](O)C(=O)N4)CC2)cc1C(F)(F)F` (racemic) [Example 13, 6-{4-[cis-5-Hydroxy-6-oxo-4-(trifluoromethyl)-4,5,6,7-tetrahydro-1H-pyrazolo[3,4-b]pyridin-3-yl]piperidin-1-yl}-4-(trifluoromethyl)pyridine-3-carbonitrile], 0.037 µM; to `O=C1Nc2[nH]nc(C3CCN(c4ncc(C(F)(F)F)cc4Cl)CC3)c2[C@@H](C(F)(F)F)[C@H]1O` (racemic) [Example 14, cis-3-{1-[3-Chloro-5-(trifluoromethyl)pyridin-2-yl]piperidin-4-yl}-5-hydroxy-4-(trifluoromethyl)-1,4,5,7-tetrahydro-6H-pyrazolo[3,4-b]pyridin-6-one], 0.38 µM.
To `O=C1Nc2[nH]nc(C3CCN(c4nc(C(F)(F)F)cs4)CC3)c2[C@@H](C(F)(F)F)[C@H]1O` (racemic) [Example 15, cis-5-Hydroxy-4-(trifluoromethyl)-3-{1-[4-(trifluoromethyl)-1,3-thiazol-2-yl]piperidin-4-yl}-1,4,5,7-tetrahydro-6H-pyrazolo[3,4-b]pyridin-6-one] belongs 0.29 µM.
The value for `O=C1Nc2[nH]nc(C3CCN(c4cccc(C(F)(F)F)n4)CC3)c2[C@@H](C(F)(F)F)[C@H]1O` (racemic) [Example 16, cis-5-Hydroxy-4-(trifluoromethyl)-3-{1-[6-(trifluoromethyl)pyridin-2-yl]piperidin-4-yl}-1,4,5,7-tetrahydro-6H-pyrazolo[3,4-b]pyridin-6-one] was 0.062 µM.
As for `O=C1Nc2[nH]nc(C3CCN(c4cc(C(F)(F)F)ccn4)CC3)c2[C@@H](C(F)(F)F)[C@H]1O` (racemic) [Example 17, cis-5-Hydroxy-4-(trifluoromethyl)-3-{1-[4-(trifluoromethyl)pyridin-2-yl]piperidin-4-yl}-1,4,5,7-tetrahydro-6H-pyrazolo[3,4-b]pyridin-6-one], the EC50 is 0.031 µM.
To `O=C1Nc2[nH]nc(C3CCN(c4cc(C(=O)N5CCCCC5)c(C(F)(F)F)cn4)CC3)c2[C@@H](C(F)(F)F)[C@H]1O` (racemic) [Example 33, cis-5-Hydroxy-3-{1-[4-(piperidin-1-ylcarbonyl)-5-(trifluoromethyl)pyridin-2-yl]piperidin-4-yl}-4-(trifluoromethyl)-1,4,5,7-tetrahydro-6H-pyrazolo[3,4-b]pyridin-6-one] belongs 0.057 µM; to `O=C1Nc2[nH]nc(C3CCN(c4ccc(OC(F)F)cn4)CC3)c2[C@@H](C(F)(F)F)[C@H]1O` (racemic) [Example 37, cis-3-{1-[5-(Difluoromethoxy)pyridin-2-yl]piperidin-4-yl}-5-hydroxy-4-(trifluoromethyl)-1,4,5,7-tetrahydro-6H-pyrazolo[3,4-b]pyridin-6-one], 0.094 µM; to `O=C1Nc2[nH]nc(C3CCN(c4ccc(C(F)(F)F)nn4)CC3)c2[C@@H](C(F)(F)F)[C@H]1O` (single isomer, unassigned) [Example 19, (+)-cis-5-Hydroxy-4-(trifluoromethyl)-3-{1-[6-(trifluoromethyl)pyridazin-3-yl]piperidin-4-yl}-1,4,5,7-tetrahydro-6H-pyrazolo[3,4-b]pyridin-6-one], 0.035 µM.
The value for `O=C1Nc2[nH]nc(C3CCN(c4ccc(C(F)(F)F)nc4)CC3)c2[C@@H](C(F)(F)F)[C@H]1O` (single isomer, unassigned) [Example 23, (+)-cis-5-Hydroxy-4-(trifluoromethyl)-3-{1-[6-(trifluoromethyl)pyridin-3-yl]piperidin-4-yl}-1,4,5,7-tetrahydro-6H-pyrazolo[3,4-b]pyridin-6-one] was 0.008 µM; that for `N#Cc1ncc(N2CCC(c3n[nH]c4c3[C@@H](C(F)(F)F)[C@@H](O)C(=O)N4)CC2)cc1F` (single isomer, unassigned) [Example 24, (+)-3-Fluoro-5-{4-[cis-5-hydroxy-6-oxo-4-(trifluoromethyl)-4,5,6,7-tetrahydro-1H-pyrazolo[3,4-b]pyridin-3-yl]piperidin-1-yl}pyridine-2-carbonitrile] was 0.03 µM.

The values are drawn from patent US9796709B2, “5-hydroxy-4-(trifluoromethyl)pyrazolopyridine derivative” (Daiichi Sankyo Company, Limited, priority 2013, dated 2017).
